Source: PubChem BioAssay (NCI)
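Tested at 5 concentrations; 48 h exposure; 96-well plates; endpoints linearly interpolated, else capped at highest concentration. GI50 = concentration required for 50% inhibition of growth. TGI marks complete inhibition of growth.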

What was measured:
Experiment in all cases: NCI-60 cell line screen, 48 h
[1] = tested on: MDA-N
[2] = tested on: HCT-116 colon
[3] = tested on: T-47D breast
[4] = tested on: UO-31 renal
[5] = tested on: RXF 393 renal
[6] = tested on: SW-620 colon
[7] = tested on: SK-MEL-5 melanoma
[8] = tested on: M14 melanoma
[9] = tested on: NCI/ADR-RES ovarian
[10] = tested on: MDA-MB-435
[11] = tested on: UACC-62 melanoma
[12] = tested on: RPMI-8226 leukemia
[13] = tested on: COLO 205 colon
[14] = tested on: HS 578T breast

Row | SMILES | TGI [1] [µM] | TGI [2] [µM] | TGI [3] [µM] | TGI [4] [µM] | TGI [5] [µM] | TGI [6] [µM] | TGI [7] [µM] | TGI [8] [µM] | TGI [9] [µM] | TGI [10] [µM] | TGI [11] [µM] | TGI [12] [µM] | TGI [13] [µM] | TGI [14] [µM] | GI50 [10] [µM]
1 | NC1CC(=O)c2c(I)sc(I)c21 (centres undefined) | 44.7 | > 49.4 | > 73 | 35.5 | > 60.8 | 46.1 | > 71.1 | > 77.1 | > 61.7 | 38.7 | 32.6 | 29.9 | > 63 | 75 | 
2 | CNC(=O)OC1/C(C)=C\C(C)C(O)C(OC)CC(C)CC2=C(OC)C(=O)C=C(C2=O)N(C)C(=O)/C(C)=C/C=C\C1OC (centres undefined) | 10.7 | 21.1 | 6.14 | 31.7 | 17.9 | 12.5 | 21.5 | 18.4 | 62 | > 100 | 17.6 | 13.2 | 7.9 | 15.3 | > 100
3 | C=CCSC1=N/C(=C\c2ccc(C)cc2)C(=O)N1CC=C | 45.1 | 67.4 | 78.7 | 84.4 | 43.2 | > 100 | 27.3 | > 100 | > 100 | 98.8 | > 100 | 31.9 | 42 | > 100 | 
4 | C1CCC(CC2CCC(NC3=NCCO3)CC2)CC1 (centres undefined) | 35.9 | 30.6 | 54.3 | 35.9 | 36.6 | 41.7 | 33.7 | 33.8 | 37.3 | 32.3 | 31.1 | 55.9 | 28.2 | 40.6 | 
5 | COC(=O)C(=O)C(C(=O)C(=O)Nc1cc(C)ccc1C)c1nc2ccccc2[nH]c1=O (centres undefined) | > 100 | > 100 | > 100 | > 100 | > 100 | > 100 | > 100 | > 100 | > 100 | > 100 | > 100 | 71.4 | > 100 | > 100 | 
6 | C=CCN(C(C)=O)c1cc(OCc2ccccc2)c2c(c1)c(C)cn2S(=O)(=O)c1ccccc1 | > 74.7 | > 100 | > 35 | > 100 | > 100 | > 100 | 21.5 | > 100 | > 100 | > 46.3 | > 76.9 | > 28.5 | 12.6 | > 70.4 | 
7 | O=C1OCOC2(CCCC2)C1c1ccccc1 (centres undefined) | > 100 | > 100 | > 100 | > 100 | > 100 | > 100 | > 100 | > 100 | > 100 | > 100 | > 100 | > 100 | > 100 | > 100 | 
8 | CSC(SC)=C(C#N)C(=O)Nc1ccc(Cl)cc1 | > 100 | > 100 | 85.3 | 65.2 | 54.9 | > 100 | > 100 | > 100 | > 100 | > 100 | > 100 | > 100 | 35.9 | > 100 | 
9 | O=C1c2ccccc2CC12Cc1ccc3c(c1C2=O)CCCC3 (centres undefined) | > 100 | > 100 | 9.59 | > 100 | 23.9 | > 100 | > 100 | > 100 | > 100 | > 100 | > 100 | > 100 | > 100 | 48.3 | 
10 | C=CCCCCCCCCCOC1C=CC(O)C(CO)O1 (centres undefined) | 82.1 | > 100 | > 100 | > 100 | > 100 | > 100 | 48.1 | 36 | > 100 | > 100 | 97.4 | 50.4 | > 100 | > 100 | 
11 | Cc1cccc(NC(=S)NNC(=O)c2cc(-c3ccccc3)nc3ccccc23)c1 | > 100 | 48.4 | > 100 | 57.1 | 68.3 | > 100 | 39 | > 100 | > 100 | 85.7 | 99.7 | 83.6 | 40.1 | > 100 | 
12 | CCc1nnc2sc(-c3ccc(-c4ccccc4[N+](=O)[O-])o3)nn12 | 46.1 | > 100 | > 100 | > 100 | > 100 | > 100 | 65.9 | > 100 | 75.1 | 49.8 | > 100 | > 100 | > 100 | > 100 | 
13 | O=C(O)COc1c(Cl)cc(Cl)c(C(c2c(Cl)cc(Cl)c(OCC(=O)O)c2Cl)C(Cl)(Cl)Cl)c1Cl | > 100 | > 100 | > 100 | 55.2 | 92.7 | > 100 | 40.6 | 46.8 | > 100 | 78.2 | 37.9 | 85.9 | > 100 | > 100 | 
14 | O=C1N[C@@H]([C@H]2CC[C@H](Cl)CN2)C(=O)N[C@H]1[C@H]1CC[C@H](Cl)CN1 | 4.98 | 32.7 | 56.1 | 6.42 | 12.2 | 29.4 | 5.53 | 2.3 | 10.4 | 32 | 3.53 | 75.1 | 9.68 | 91.7 | 
15 | COc1ccc(/C=N/n2c(-c3ccccc3)n[nH]c2=O)c(OC)c1 | > 100 | > 100 | > 100 | > 70 | > 93.4 | > 100 | > 100 | > 100 | > 73.9 | > 100 | > 100 | > 100 | > 100 | 80 | 
16 | C[N+]1(CC[N+]2(C)CCCC2c2cccnc2)CCCC1c1cccnc1 (centres undefined) | > 100 | > 100 | > 100 | > 100 | > 100 | > 100 | > 100 | > 100 | > 100 | > 100 | > 100 | > 100 | > 100 | > 100 | 
17 | O=C1c2ccccc2C(=O)c2c1ccc1c3ccccc3n(-c3ccccc3)c21 | > 51.4 | 47.5 | 45.5 | 55.1 | 34.2 | 48 | 29.9 | 29.8 | > 100 | 26 | 24.1 | 25.8 | 34.2 | 42.7 | 
18 | CCOC(=O)c1cccc(N=NNc2cccc(C(=O)OCC)c2)c1 | > 100 | > 100 | > 100 | 45.6 | 62.9 | > 100 | > 100 | > 100 | > 100 | > 100 | > 100 | > 100 | > 100 | 77.3 | 
19 | CCCCCCCC(=O)NC(C)(C)C(=O)NCC(=O)NC(CC(C)C)C(=O)NC(C)(C)C(=O)NCC(=O)NCC(=O)NC(CC(C)C)C(=O)NC(C)(C)C(=O)NCC(=O)NC(C(=O)NC(CO)CC(C)C)C(C)CC (centres undefined) | 7.37 | 7.09 | 7.23 | 7.93 | 7.97 | 9.28 | 7.19 | 7.62 | 9.12 | 8.24 | 7.54 | 4.27 | 7.18 | 8.81 | 
20 | CCN(CC)C(=O)N[C@@H](CC(C)C)C(=O)NC | > 100 | > 100 | > 100 | > 100 | > 100 | > 100 | > 100 | > 100 | > 100 | > 100 | > 100 | > 100 | > 100 | > 100 | 
21 | NS(=O)(=O)c1ccc(Nc2c3ccccc3nc3c(C(=O)NC(CO)(CO)CO)cccc23)cc1 | 0.862 | 0.327 | > 1 | 0.366 | 0.386 | 0.435 | 0.229 | 0.39 | > 1 | 0.558 | 0.318 | 0.683 | 0.175 | 0.44 | 
22 | O=C1CC2(CCN(Cc3ccccc3)CC2)C(=O)N1N1CCCCC1 | > 100 | > 100 | > 100 | > 100 | > 100 | > 100 | > 100 | > 100 | > 100 | > 100 | > 100 | > 100 | > 100 | > 100 | 
